From patent publication US5854081A, “Stable expression of human A2B adenosine receptors, and assays employing the same” (The University of Patent Foundation, priority 1996, dated 1998)
Read-outs that look alike come from different tables or passages of the source.

Legend:
[1] = target: T1, A2B receptors (Homo sapiens, UniProt P29275); experiment: Inhibition of NECA-stimulated cyclic AMP accumulation in A2B transfected HEK-293 cells (Schild analysis); type: cell-based; details: read-out: pA2 (antagonism, Schild analysis) (converted)
T1 construct: expressed in transfected cells; host or cells: HEK-293
T1 sequence (P29275 1-332): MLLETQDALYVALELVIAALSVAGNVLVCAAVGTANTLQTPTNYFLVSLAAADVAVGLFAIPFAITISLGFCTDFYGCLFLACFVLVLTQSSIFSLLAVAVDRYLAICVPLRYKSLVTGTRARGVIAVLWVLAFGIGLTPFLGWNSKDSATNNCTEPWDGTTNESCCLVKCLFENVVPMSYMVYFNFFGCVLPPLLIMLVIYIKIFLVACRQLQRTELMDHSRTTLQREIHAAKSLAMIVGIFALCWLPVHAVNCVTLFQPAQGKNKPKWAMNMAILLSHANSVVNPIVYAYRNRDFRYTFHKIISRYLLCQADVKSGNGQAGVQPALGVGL
Text: The radioligands used to label the A1 and A2A receptors are commonly used and are commercially available. However, there are no reports in the literature of radioligands useful for detecting A2B receptors. […] Based on this observation [^3 H]DPX was custom triiated by NEN.

[2] = target: recombinant human native-A2A adenosine receptor (Homo sapiens, UniProt P29274); experiment: Competition for radioligand binding, native-A2A
recombinant human native-A2A adenosine receptor, sequence (P29274 whole entry): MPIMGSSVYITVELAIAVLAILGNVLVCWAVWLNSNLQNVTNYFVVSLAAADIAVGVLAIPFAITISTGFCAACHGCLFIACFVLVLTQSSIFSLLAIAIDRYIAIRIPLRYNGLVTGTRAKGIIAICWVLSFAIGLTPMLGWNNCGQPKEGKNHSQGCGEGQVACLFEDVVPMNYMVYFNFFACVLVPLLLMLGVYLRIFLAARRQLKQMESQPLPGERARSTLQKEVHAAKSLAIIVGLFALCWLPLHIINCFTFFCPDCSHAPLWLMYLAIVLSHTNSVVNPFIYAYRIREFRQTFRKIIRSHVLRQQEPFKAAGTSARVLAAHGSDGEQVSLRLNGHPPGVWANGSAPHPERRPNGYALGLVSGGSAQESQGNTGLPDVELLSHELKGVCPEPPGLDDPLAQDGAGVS

[3] = target: recombinant human H/F-A2A adenosine receptor (Homo sapiens, UniProt P29274); experiment: Competition for radioligand binding, H/F-A2A
recombinant human H/F-A2A adenosine receptor, sequence (P29274 with tags, fused parts or gaps): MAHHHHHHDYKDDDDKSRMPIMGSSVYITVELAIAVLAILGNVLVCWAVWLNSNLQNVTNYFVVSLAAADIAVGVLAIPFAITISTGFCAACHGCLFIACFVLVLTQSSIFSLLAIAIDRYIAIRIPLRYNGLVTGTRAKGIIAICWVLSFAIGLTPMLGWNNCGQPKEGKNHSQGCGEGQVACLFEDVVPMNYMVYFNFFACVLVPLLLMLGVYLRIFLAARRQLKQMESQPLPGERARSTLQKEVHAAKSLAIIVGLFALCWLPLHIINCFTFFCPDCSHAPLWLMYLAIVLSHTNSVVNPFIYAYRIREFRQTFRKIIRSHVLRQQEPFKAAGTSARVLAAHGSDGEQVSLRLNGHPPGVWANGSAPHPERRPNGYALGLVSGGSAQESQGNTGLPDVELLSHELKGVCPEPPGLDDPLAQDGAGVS

[4] = target: T2, recombinant human native-A1 adenosine receptor (Homo sapiens, UniProt P30542); experiment: Competition for radioligand binding, native-A1; set-up: expressed in transfected cells; details: competition with 1 nM ^125 I-ABA
T2 sequence (P30542 1-326): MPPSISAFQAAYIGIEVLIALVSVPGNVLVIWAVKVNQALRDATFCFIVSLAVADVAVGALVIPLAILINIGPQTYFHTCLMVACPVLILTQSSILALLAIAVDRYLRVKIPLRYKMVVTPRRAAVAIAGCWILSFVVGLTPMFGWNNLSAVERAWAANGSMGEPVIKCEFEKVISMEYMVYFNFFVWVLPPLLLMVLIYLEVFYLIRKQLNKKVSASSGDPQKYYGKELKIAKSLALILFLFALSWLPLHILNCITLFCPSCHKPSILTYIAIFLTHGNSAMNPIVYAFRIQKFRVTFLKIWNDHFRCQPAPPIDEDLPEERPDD
Experimental: (§1) The experiments were performed in triplicate with 10 μg membrane protein in a total volume of 0.1 mL with 0.5 U/mL adenosine deaminase, with and without 5 mM MgCl2 for agonist and antagonist binding, respectively. […] Bmax and KD were calculated by nonlinear least squares interpolation for single or two-site binding models. K1 values for different compounds were derived from IC50 values. Data from replicate experiments were tabulated as means ± SEM.
(§2) Twelve compounds were evaluated to determine their potencies to compete for radioligand binding to native- and H/F-A1 or A2A receptors.

[5] = target: T3, recombinant human H/F-A1 adenosine receptor (Homo sapiens, UniProt P30542); experiment: Competition for radioligand binding, H/F-A1; details: competition with 1 nM ^125 I-ABA
T3 construct: expressed in transfected cells
T3 sequence (P30542 with tags, fused parts or gaps): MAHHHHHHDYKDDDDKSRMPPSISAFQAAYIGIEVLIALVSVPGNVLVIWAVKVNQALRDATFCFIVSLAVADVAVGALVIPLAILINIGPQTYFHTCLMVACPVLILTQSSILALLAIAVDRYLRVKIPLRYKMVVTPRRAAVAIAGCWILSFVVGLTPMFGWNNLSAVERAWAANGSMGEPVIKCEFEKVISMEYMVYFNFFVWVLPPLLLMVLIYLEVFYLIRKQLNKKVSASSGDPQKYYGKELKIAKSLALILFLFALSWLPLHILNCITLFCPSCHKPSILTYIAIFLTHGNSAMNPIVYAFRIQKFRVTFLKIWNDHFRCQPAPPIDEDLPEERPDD
Experimental: as §1, §2

[6] = system: A3 AR; experiment: Activation of A3 AR; details: >μM levels
[7] = system: untransfected CHO-K1 cells; experiment: Cyclic AMP levels in untransfected CHO-K1 cells; type: cell-based; details: concentrations up to 1 μM
Experimental: (§3) CHO-K1 cells were incubated without or with 100 mg/mL pertussis toxin. […] Five-hundred microliters of the supernatants were removed, acetylated, and assayed for cyclic AMP by automated radioimmunoassay.

[8] = system: H/F-A1 adenosine receptors; experiment: Inhibition of cyclic AMP accumulation, CHO-K1 cells with H/F-A1; type: cell-based, human
Experimental: as §3

[9] = system: native A2A receptors; experiment: Effect of GTPγS on agonist radioligand binding to native A2A; set-up: species or system human; details: Sf9 cell membranes
[10] = system: H/F-A1 receptors
[11] = Block of ^125 I-ABA binding to lung membranes
[12] = target: rat striatal A2A receptors; details: cited from earlier work
[13] = target: T4, A2B adenosine receptors (Homo sapiens, UniProt P29275); experiment: A2B radioligand binding assay; details: FIG. 6
T4 construct: made in house
T4 sequence (P29275 1-332): T1 sequence (P29275 1-332)

[14] = target: T3, recombinant human H/F-A1 adenosine receptor; experiment: Saturation radioligand binding, H/F-A1 (CHO-K1 membranes)
[15] = target: T2, recombinant human native-A1 adenosine receptor; experiment: Saturation radioligand binding, native-A1 (CHO-K1 membranes)
[16] = system: A3 AR; experiment: A3 AR selectivity of radioligand; type: binding
Text: These receptors can be labeled nonselectively by agonist radioligands that also label A1 AR.

[17] = system: sheep A3AR
[18] = system: rat A3AR
[19] = competition with 70 nM [^3 H]NECA
[20] = read-out: K1, competition with 70 nM [^3 H]NECA
[21] = ^125 I-ABA: high affinity sites

Compound: CCn1c(=O)c2[nH]c(-c3ccccc3)nc2n(CC)c1=O [1,3-diethyl-8-phenylxanthine (DPX), 1,3-diethyl-8-phenylxanthine]
- Kb [1]: 30 nM

Compound: CCCn1c(=O)c2nc(-c3ccc(OCC(=O)O)cc3)[nH]c2n(Cc2ccc(N)c(I)c2)c1=O [1ABOPX, 3-iodoaminobenzyl-1-propyl-8-p-(oxyacetate)-phenylxanthine]
- NH (Hill coefficient) [2, 19]: 0.84 ± 0.17
- Ki [2, 20]: 23.7 ± 7.5 nM
- NH (Hill coefficient) [3, 19]: 0.94 ± 0.14
- Ki [3, 20]: 22 ± 3.6 nM

Compound: Cn1c(=O)c2[nH]c(-c3ccc(S(=O)(=O)O)cc3)nc2n(C)c1=O [8-SPT, 8-P-sulfophenyltheophylline]
- NH (Hill coefficient) [4]: 0.87 ± 0.05
- NH (Hill coefficient) [5]: 0.84

Compound: CCNC(=O)[C@H]1O[C@@H](n2cnc3c(N)nc(NCCc4ccc(CCC(=O)O)cc4)nc32)[C@H](O)[C@@H]1O [CGS21680, 2-(r-(s-carboxyethyl)phen-ethylamino)-5'-N-ethylcarboxamidondenosine]
- activation of A3 AR [6]: activate A3 AR

Compound: OC[C@H]1O[C@@H](n2cnc3c(NC4CCCC4)ncnc32)[C@H](O)[C@@H]1O [CPA, N^6 -cyclopentyladenosine]
- NH (Hill coefficient) [4]: 0.93 ± 0.16
- effect on cyclic AMP levels [7]: no effect
- inhibition of cyclic AMP accumulation [8]: potently inhibited
- inhibition of cyclic AMP accumulation after pertussis toxin ([8]; preincubated with pertussis toxin): abolished
- NH (Hill coefficient) [5]: 0.79

Compound: Nc1nc2c(ncn2[C@@H]2O[C@H](COP(=O)(O)OP(=O)(O)OP(O)(O)=S)[C@@H](O)[C@H]2O)c(=O)[nH]1 [GTPγS]
- reduction of [^3 H]CGS21680 / [^3 H]NECA binding by GTPγS [9]: reduced only slightly
- reduction in number of high affinity agonist (^125 I-ABA) binding sites by GTPγS [10]: large reduction

Compound: CNC(=O)[C@H]1O[C@@H](n2cnc3c(NCc4cccc(I)c4)ncnc32)[C@H](O)[C@@H]1O [IB-MECA]
- block of ^125 I-ABA binding to lung membranes ([11]; concentration not given): blocked

Compound: CCNC(=O)[C@H]1O[C@@H](n2cnc3c(N)ncnc32)[C@H](O)[C@@H]1O [NECA, 5'-N-ethylcarboxamidondenosine]
- NH (Hill coefficient) [4]: 0.95 ± 0.09
- NH (Hill coefficient) [5]: 0.97

Compound: CC(C)N(C)c1nc2c(N[C@@H]3CC4CC3CC4O)ncnc2n1C (stereo partly shown) [WRC-0571]
- block of ^125 I-ABA binding to lung membranes ([11]; 1 μM): not blocked

Compound: CCCn1c(=O)c2[nH]c(-c3ccc(OCC(=O)NCCN)cc3)nc2n(CCC)c1=O [XAC, xanthine amino congenen]
- NH (Hill coefficient) [4]: 1.12 ± 0.11
- NH (Hill coefficient) [5]: 0.96

Compound: CCNC(=O)[C@H]1O[C@@H](n2cnc3c(N)nc(NCCc4ccc(CCC(=O)O)cc4)nc32)[C@H](O)[C@@H]1O [[^3 H]CGS21680]
- Kd ([12]; G protein coupled rat striatal A2A receptors): 3.9 nM
- Kd ([12]; G protein uncoupled rat striatal A2A receptors): 51 nM

Compound: CCn1c(=O)c2[nH]c(-c3ccccc3)nc2n(CC)c1=O [[^3 H]DPX]
- detection of A2B receptors by radioligand binding [13]: first successful detection of A2B adenosine receptors by radioligand binding

Compound: Nc1ccc(CNc2ncnc3c2ncn3[C@@H]2O[C@H](CO)[C@@H](O)[C@H]2O)cc1I [^125 I-ABA]
- Kd [14, 21]: 0.98 ± 0.16 nM
- Kd [15, 21]: 102 ± 0.03 nM

Compound: Nc1ccc(CNc2ncnc3c2ncn3[C@@H]2O[C@H](CO)[C@@H](O)[C@H]2O)cc1[125I] [^125 I-ABA]
- Bmax [14]: 3.3 ± 0.5 pmol/mg protein
- Bmax [15]: 3.5 ± 0.8 pmol/mg protein

Compound: CCCn1c(=O)c2[nH]c(-c3ccc(OCC(=O)O)cc3)nc2n(Cc2ccc(N)c([125I])c2)c1=O [^125 I-ABOPX]
- selectivity of radioligand [16]: A3 AR-selective

Compound: Cn1c(=O)c2[nH]cnc2n(C)c1=O [theophylline]
- affinity for A3 AR [17]: very low affinity
- affinity for A3 AR [18]: very low affinity
